Data from PubChem BioAssay (NCI).
Values joined by “and” are separate entries in the source; they are usually repeats but may differ in a detail not shown here. Equal values may be shown once.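 Five compound concentrations were applied to cells in 96-well plates for 48 hours; endpoints were derived by simple linear interpolation of the resulting dose-response curve. Here, GI50 denotes the concentration required for 50% inhibition of growth. Definition used: TGI = concentration required for complete inhibition of growth.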

What was measured:
Assay in all cases: DTP human tumour cell line panel, 48 h
[1] = system: MDA-MB-435
[2] = system: SR leukemia
[3] = system: UACC-62 melanoma
[4] = system: MDA-MB-231 breast
[5] = system: TK-10 renal
[6] = system: HCT-116 colon
[7] = system: RPMI-8226 leukemia
[8] = system: M14 melanoma
[9] = system: A498 renal
[10] = system: NCI-H460 lung

Structure (SMILES): C=CCn1c(C)nc2ccc(Nc3nc(Nc4ccc(F)cc4)nc4ccccc34)cc21
- GI50 [1]: 4 µM
- TGI [1]: 20.4 µM
- GI50 [2]: 2.26 µM
- TGI [2]: 5.93 µM
- GI50 [3]: 1.8 µM
- TGI [3]: 3.7 µM
- GI50 [4]: 2.37 µM
- TGI [4]: 8.24 µM
- GI50 [5]: 6.83 µM
- TGI [5]: 24.6 µM
- GI50 [6]: 2.41 µM
- TGI [6]: 7.67 µM
- GI50 [7]: 1.85 µM
- TGI [7]: 4.57 µM
- GI50 [8]: 3.26 µM
- TGI [8]: 14.2 µM
- GI50 [9]: 4.36 µM
- TGI [9]: 24.1 µM
- GI50 [10]: 3.11 µM
- TGI [10]: 14.5 µM

Structure (SMILES): CC1CCC2(NC1)OC1CC3C4CC=C5CC(O)CCC5(C)C4CCC3(C)C1C2C (configuration not stated)
- GI50 [1]: 48.7 µM and 16.6 µM
- TGI [1]: > 100 µM
- TGI [2]: 9.63 µM and 12.4 µM
- TGI [3]: 65.1 µM and 50.4 µM
- TGI [4]: 51.7 µM and 37 µM
- TGI [5]: 47.9 µM and 44.7 µM
- TGI [6]: 53.5 µM and > 68.1 µM
- TGI [7]: 93.3 µM and 70.2 µM
- TGI [8]: > 100 µM
- GI50 [9]: 18.7 µM and 5.56 µM
- TGI [9]: 38.5 µM and 14.5 µM
- TGI [10]: > 100 µM

Structure (SMILES): Cc1nc(-c2ccccc2)n2nc(NCCCN3CCOCC3)ncc12
- GI50 [1]: > 25 µM
- TGI [1]: > 25 µM
- GI50 [2]: > 25 µM
- TGI [2]: > 25 µM
- GI50 [3]: > 25 µM
- TGI [3]: > 25 µM
- GI50 [4]: > 25 µM
- TGI [4]: > 25 µM
- GI50 [5]: 19.1 µM
- TGI [5]: > 25 µM
- GI50 [6]: 19.4 µM
- TGI [6]: > 25 µM
- GI50 [7]: > 25 µM
- TGI [7]: > 25 µM
- GI50 [8]: 16.5 µM
- TGI [8]: > 25 µM
- GI50 [9]: 6.5 µM
- TGI [9]: > 25 µM
- GI50 [10]: 21.2 µM
- TGI [10]: > 25 µM

Structure (SMILES): Cc1ncc(C(=O)Nc2ccc(CN3CCN(C)CC3)c(C(F)(F)F)c2)cc1C#Cc1cnc2cccnn12
- GI50 [1]: 0.243 µM
- TGI [1]: 1.48 µM
- GI50 [2]: 0.293 µM
- TGI [2]: 50 µM
- GI50 [3]: 0.28 µM
- TGI [3]: 1.32 µM
- GI50 [4]: 0.205 µM
- TGI [4]: 4.15 µM
- GI50 [5]: 0.797 µM
- TGI [5]: 5.81 µM
- GI50 [6]: 0.178 µM
- TGI [6]: 0.743 µM
- GI50 [7]: 0.145 µM
- TGI [7]: 1.29 µM
- GI50 [8]: 0.163 µM
- TGI [8]: 0.732 µM
- GI50 [9]: 0.703 µM
- TGI [9]: 1.47 µM
- GI50 [10]: 0.501 µM
- TGI [10]: 1.53 µM

Structure (SMILES): Cn1c(C(=O)c2ccncc2)cc2ccccc21
- GI50 [1]: > 100 µM
- TGI [1]: > 100 µM
- GI50 [2]: 63.1 µM
- TGI [2]: > 100 µM
- GI50 [3]: 83.5 µM
- TGI [3]: > 100 µM
- GI50 [4]: 66.5 µM
- TGI [4]: > 100 µM
- GI50 [5]: > 100 µM
- TGI [5]: > 100 µM
- GI50 [6]: 72 µM
- TGI [6]: > 100 µM
- GI50 [7]: 48.8 µM
- TGI [7]: > 100 µM
- GI50 [8]: > 100 µM
- TGI [8]: > 100 µM
- GI50 [9]: 26.2 µM
- TGI [9]: > 100 µM
- GI50 [10]: > 100 µM
- TGI [10]: > 100 µM

Structure (SMILES): CC(C)CCC[C@@H](C)[C@H]1CC[C@H]2[C@@H]3CC[C@H]4C[C@@H](CCC=C(c5cc(Cl)c(O)c(C(=O)O)c5)c5cc(Cl)c(O)c(C(=O)O)c5)CC[C@]4(C)[C@H]3CC[C@]12C
- TGI [1]: > 100 µM
- TGI [2]: > 100 µM
- TGI [3]: > 100 µM
- TGI [4]: > 100 µM
- TGI [5]: > 100 µM
- TGI [6]: > 100 µM
- TGI [7]: > 100 µM
- TGI [8]: > 100 µM
- TGI [9]: > 100 µM
- TGI [10]: > 100 µM

Structure (SMILES): CN(C)CCNc1ccc(CO)c2sc3ccc(O)cc3c(=O)c12
- TGI [1]: 4.34 µM
- TGI [2]: 0.78 µM
- TGI [3]: 7.75 µM
- TGI [4]: 4.24 µM
- TGI [5]: 32.1 µM
- TGI [6]: 9.71 µM
- TGI [7]: 12.8 µM
- TGI [8]: 16.5 µM
- TGI [9]: 20.4 µM
- TGI [10]: 2.87 µM

Structure (SMILES): O=C1/C(=C/c2cccc(Br)c2)COc2ccc(O)cc21
- GI50 [1]: 2.13 µM
- TGI [1]: 5.35 µM
- GI50 [2]: 0.47 µM
- TGI [2]: 5.2 µM
- GI50 [3]: 2.37 µM
- TGI [3]: 6.35 µM
- GI50 [4]: 2.88 µM
- TGI [4]: 9.38 µM
- GI50 [5]: 3.94 µM
- TGI [5]: 15.6 µM
- GI50 [6]: 1.45 µM
- TGI [6]: 2.99 µM
- GI50 [7]: 0.26 µM
- TGI [7]: 0.761 µM
- GI50 [8]: 3.42 µM
- TGI [8]: 12.3 µM
- GI50 [9]: 11.6 µM
- TGI [9]: 23.9 µM
- GI50 [10]: 3.69 µM
- TGI [10]: 13.2 µM

Structure (SMILES): COc1cc(C2SCCCCCCCCCCSC(c3ccc(O)c(OC)c3)SCCCCCCCCCCS2)ccc1O (configuration not stated)
- TGI [1]: > 100 µM
- TGI [2]: > 100 µM
- TGI [3]: > 100 µM
- TGI [4]: > 100 µM
- TGI [5]: > 100 µM
- TGI [6]: > 100 µM
- TGI [7]: > 100 µM
- TGI [8]: > 100 µM
- TGI [9]: > 100 µM

Structure (SMILES): COc1ccccc1C#Cc1ccccc1C#CCCCCO
- GI50 [1]: 20.2 µM
- TGI [1]: 41.8 µM
- GI50 [2]: 1.01 µM
- TGI [2]: 64.4 µM
- GI50 [3]: 16 µM
- TGI [3]: 30.7 µM
- GI50 [4]: 12.4 µM
- TGI [4]: 27.1 µM
- GI50 [5]: 34.5 µM
- TGI [5]: > 100 µM
- GI50 [6]: 16 µM
- TGI [6]: 36.3 µM
- GI50 [7]: 20 µM
- TGI [7]: > 100 µM
- GI50 [9]: 13.3 µM
- TGI [9]: 27.9 µM
- GI50 [10]: 15.5 µM
- TGI [10]: 34.2 µM

Structure (SMILES): O=C(/C=C/c1ccccc1)C(Br)C(Br)c1ccccc1 (configuration not stated)
- GI50 [1]: 1.49 µM
- TGI [1]: 3.08 µM
- GI50 [2]: 0.455 µM
- TGI [2]: 2.59 µM
- GI50 [3]: 1.64 µM
- TGI [3]: 3.29 µM
- GI50 [4]: 1.73 µM
- TGI [4]: 3.51 µM
- GI50 [6]: 0.2 µM
- TGI [6]: 0.43 µM
- GI50 [7]: 0.317 µM
- TGI [7]: 0.909 µM
- GI50 [8]: 2.02 µM
- TGI [8]: 4.9 µM
- GI50 [9]: 1.9 µM
- TGI [9]: 5.68 µM
- GI50 [10]: 2.37 µM
- TGI [10]: 5.97 µM
